PubChem BioAssay AID248 (DTP/NCI, 2004)
Several values for one entry are separate records, joined by “and”; a condition that tells them apart may be missing. Equal entries are not always repeated. Toxic doses and inconclusive results are not listed. No stated cut-off is given here; in the data, active means T/C of 150% or more; inactive means T/C below 125%.

Test system: L1210 leukemia ip in BDF1 mice, survival T/C
Experiment: NCI In Vivo Anticancer Drug Screen. Data for tumor model L1210 Leukemia (intraperitoneal) in B6D2F1 (BDF1) mice
Conditions: endpoint: mean survival time, higher = longer survival
How it was run: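 Read-out is survival time, reported as the treated-group measurement over the vehicle-control measurement.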

[1] = dose: 100.0 mg/kg/injection, schedule: Q01DX001 (ip), vehicle: other
[2] = dose: 200.0 mg/kg/injection, schedule: Q01DX001 (ip), vehicle: other
[3] = dose: 400.0 mg/kg/injection, schedule: Q01DX001 (ip), vehicle: other
[4] = dose: 100.0 mg/kg/injection, schedule: Q04DX003 (ip), vehicle: saline with Tween-80
[5] = dose: 200.0 mg/kg/injection, schedule: Q04DX003 (ip), vehicle: saline with Tween-80
[6] = dose: 400.0 mg/kg/injection, schedule: Q04DX003 (ip), vehicle: saline with Tween-80
[7] = dose: 100.0 mg/kg/injection, schedule: Q04DX002 (ip), vehicle: saline with Tween-80
[8] = dose: 200.0 mg/kg/injection, schedule: Q04DX002 (ip), vehicle: saline with Tween-80
[9] = dose: 400.0 mg/kg/injection, schedule: Q04DX002 (ip), vehicle: saline with Tween-80
[10] = dose: 100.0 mg/kg/injection, schedule: Q04DX003 (ip), vehicle: Klucel (hydroxypropylcellulose) (HPC)
[11] = dose: 200.0 mg/kg/injection, schedule: Q04DX003 (ip), vehicle: Klucel (hydroxypropylcellulose) (HPC)
[12] = dose: 400.0 mg/kg/injection, schedule: Q04DX003 (ip), vehicle: Klucel (hydroxypropylcellulose) (HPC)
[13] = dose: 100.0 mg/kg/injection, schedule: Q01DX001 (ip), vehicle: saline with Tween-80
[14] = dose: 100.0 mg/kg/injection, schedule: Q01DX009 (ip), vehicle: saline with Tween-80
[15] = dose: 200.0 mg/kg/injection, schedule: Q01DX001 (ip), vehicle: saline with Tween-80
[16] = dose: 200.0 mg/kg/injection, schedule: Q01DX009 (ip), vehicle: saline with Tween-80
[17] = dose: 25.0 mg/kg/injection, schedule: Q01DX009 (ip), vehicle: saline
[18] = dose: 50.0 mg/kg/injection, schedule: Q01DX009 (ip), vehicle: saline
[19] = dose: 100.0 mg/kg/injection, schedule: Q01DX009 (ip), vehicle: saline
[20] = dose: 100.0 mg/kg/injection, schedule: Q04DX003 (ip), vehicle: saline

Measured: T/C

CC(C)CCC[C@@H](C)[C@H]1CC[C@H]2[C@@H]3C[C@@H](Br)[C@@]4(Br)C[C@@H](Cl)CC[C@]4(C)[C@H]3CC[C@]12C
inactive: dose: 50.0 mg/kg/injection, schedule: Q01DX001 (ip), vehicle: other 102 % of control | [1] 107 % of control | [2] 96 % of control | [3] 96 % of control

COc1ccc(CN2CCCN(Cc3ccc(OC)cc3OC)C2c2ccc(F)cc2)c(OC)c1
inactive: dose: 50.0 mg/kg/injection, schedule: Q01DX001 (ip), vehicle: saline 94 % of control | dose: 100.0 mg/kg/injection, schedule: Q01DX001 (ip), vehicle: saline 89 % of control | dose: 200.0 mg/kg/injection, schedule: Q01DX001 (ip), vehicle: saline 94 % of control | dose: 400.0 mg/kg/injection, schedule: Q01DX001 (ip), vehicle: saline 100 % of control

O=C(c1ccccc1)c1cccc([N+](=O)[O-])c1
inactive: [4] 98 % of control | [5] 93 % of control | [6] 89 % of control

CS(=O)(=O)OCCCl
inactive: dose: 18.8 mg/kg/injection, schedule: Q01DX010 (ip), vehicle: saline 92 % of control and 96 % of control | dose: 37.5 mg/kg/injection, schedule: Q01DX010 (ip), vehicle: saline 92 % of control and 100 % of control | dose: 75.0 mg/kg/injection, schedule: Q01DX010 (ip), vehicle: saline 101 % of control and 104 % of control | dose: 150.0 mg/kg/injection, schedule: Q01DX010 (ip), vehicle: saline 97 % of control and 102 % of control

CCNC(=S)NNC(=O)c1ccc(N=NN(C)C)cc1
inactive: [7] 100 % of control | [8] 94 % of control | [9] 100 % of control

C=C(C1CC1)C1(CC)C(=O)NC(=S)NC1=O
inactive: dose: 75.0 mg/kg/injection, schedule: Q01DX001 (ip), vehicle: other 102 % of control | dose: 150.0 mg/kg/injection, schedule: Q01DX001 (ip), vehicle: other 113 % of control | dose: 300.0 mg/kg/injection, schedule: Q01DX001 (ip), vehicle: other 94 % of control

NCC(O)COc1ccccc1N (stereo not given)
inactive: dose: 3.12 mg/kg/injection, schedule: Q01DX009 (ip), vehicle: saline 97 % of control | dose: 6.25 mg/kg/injection, schedule: Q01DX009 (ip), vehicle: saline 106 % of control | dose: 12.5 mg/kg/injection, schedule: Q01DX009 (ip), vehicle: saline 100 % of control | dose: 12.5 mg/kg/injection, schedule: Q04DX003 (ip), vehicle: saline 93 % of control

O=C(O)CNC(=O)CNC(=O)C1NC(C(F)(F)F)(C(F)(F)F)OC1(C(F)(F)F)C(F)(F)F (stereo not given)
inactive: dose: 100.0 mg/kg/injection, schedule: Q01DX001 (ip), vehicle: Klucel (hydroxypropylcellulose) (HPC) 97 % of control | dose: 200.0 mg/kg/injection, schedule: Q01DX001 (ip), vehicle: Klucel (hydroxypropylcellulose) (HPC) 101 % of control | dose: 400.0 mg/kg/injection, schedule: Q01DX001 (ip), vehicle: Klucel (hydroxypropylcellulose) (HPC) 92 % of control

CC1(CCc2ccc(N)cc2)NC(=O)NC1=O (stereo not given)
inactive: [10] 110 % of control | [11] 96 % of control | [12] 93 % of control

CCCCCCCCCCCC(=O)NC(=S)Nc1cccc(Cl)c1
inactive: [13] 93 % of control | [14] 107 % of control and 89 % of control | [7] 122 % of control and 91 % of control | [15] 93 % of control | [16] 96 % of control and 86 % of control | [8] 97 % of control and 119 % of control | dose: 400.0 mg/kg/injection, schedule: Q01DX001 (ip), vehicle: saline with Tween-80 90 % of control | [9] 105 % of control and 92 % of control

O=C(Cl)c1cccc2c1sc1ccccc12
inactive: [14] 102 % of control | [4] 97 % of control | [16] 102 % of control | [5] 98 % of control | dose: 400.0 mg/kg/injection, schedule: Q01DX009 (ip), vehicle: saline with Tween-80 100 % of control | [6] 98 % of control

C/C(=N/O)c1ccc[nH]1
inactive: [1] 103 % of control | [2] 103 % of control | [3] 103 % of control

OCC1OC(Sc2ccccc2)C(O)C(O)C1O (stereo not given)
inactive: [10] 111 % of control | [11] 105 % of control | [12] 111 % of control

Cc1ccc(S(=O)(=O)NC(C)(C)CNc2ncnc(Cl)c2N)cc1
inactive: dose: 9.5 mg/kg/injection, schedule: Q01DX001 (ip), vehicle: other 101 % of control | dose: 19.0 mg/kg/injection, schedule: Q01DX001 (ip), vehicle: other 96 % of control

Cc1ccc2ccccc2c1N(CC(=O)O)S(=O)(=O)c1ccccc1 (tested in a mixture with another compound)
inactive: dose: 100.0 mg/kg/injection, schedule: Q04DX003 (ip), vehicle: saline sonified 94 % of control | dose: 200.0 mg/kg/injection, schedule: Q04DX003 (ip), vehicle: saline sonified 94 % of control | dose: 400.0 mg/kg/injection, schedule: Q04DX003 (ip), vehicle: saline sonified 112 % of control

O=C(Nc1ccc(F)cc1)OCCOc1ccc(Br)cc1
inactive: dose: 100.0 mg/kg/injection, schedule: Q01DX009 (ip), vehicle: Klucel (hydroxypropylcellulose) (HPC) 95 % of control | dose: 200.0 mg/kg/injection, schedule: Q01DX009 (ip), vehicle: Klucel (hydroxypropylcellulose) (HPC) 98 % of control | dose: 400.0 mg/kg/injection, schedule: Q01DX009 (ip), vehicle: Klucel (hydroxypropylcellulose) (HPC) 102 % of control

C(=N\N=C\c1ccco1)/c1ccco1
inactive: [13] 98 % of control and 103 % of control | [15] 98 % of control

CC(=O)/C(C)=C/C(=O)O
inactive: [17] 95 % of control | dose: 25.0 mg/kg/injection, schedule: Q04DX003 (ip), vehicle: saline 97 % of control | [18] 97 % of control | dose: 50.0 mg/kg/injection, schedule: Q04DX003 (ip), vehicle: saline 97 % of control | [19] 105 % of control | [20] 97 % of control and 108 % of control

c1ccc2c(c1)C[N+](=C1CCCCC1)Cc1ccccc1-2
inactive: [17] 103 % of control | [18] 106 % of control | [19] 101 % of control | [20] 99 % of control

Cc1ccccc1NC(=O)Oc1ccc(C2CCCCC2)cc1
inactive: dose: 100.0 mg/kg/injection, schedule: Q04DX002 (ip), vehicle: Klucel (hydroxypropylcellulose) (HPC) 103 % of control | dose: 200.0 mg/kg/injection, schedule: Q04DX002 (ip), vehicle: Klucel (hydroxypropylcellulose) (HPC) 91 % of control | dose: 400.0 mg/kg/injection, schedule: Q04DX002 (ip), vehicle: Klucel (hydroxypropylcellulose) (HPC) 100 % of control

CC(=O)Oc1ccc(OC(C)=O)c2c1CC(C)=C(C)C2
inactive: [19] 95 % of control | [20] 97 % of control | dose: 200.0 mg/kg/injection, schedule: Q01DX009 (ip), vehicle: saline 90 % of control | dose: 200.0 mg/kg/injection, schedule: Q04DX003 (ip), vehicle: saline 98 % of control | dose: 400.0 mg/kg/injection, schedule: Q01DX009 (ip), vehicle: saline 92 % of control | dose: 400.0 mg/kg/injection, schedule: Q04DX003 (ip), vehicle: saline 97 % of control
